# Reference: PMC6151529, “Design, Synthesis and Biological Evaluation of N,N-Substituted Amine Derivatives as Cholesteryl Ester Transfer Protein Inhibitors” (Molecules : A Journal of Synthetic Chemistry and Natural …, 2017)
# Tests used:
# LDL-C levels = conditions: clinical, cited from earlier work
# HDL-C levels = conditions: clinical, cited from earlier work
# CETP = biological target: T1, CETP (Homo sapiens, UniProt P11597); assay: CETP inhibitory activity, BODIPY-CE fluorescence assay (CETP RP Activity Assay Kit); type: biochemical; conditions: for IC50: read-out: IC50 (CETP inhibition); for CETP inhibition (in words): BODIPY-CE fluorescence assay
# T1 construct: purchased Roar, New York, NY, USA RB-RPAK
# T1 sequence (P11597 18-493): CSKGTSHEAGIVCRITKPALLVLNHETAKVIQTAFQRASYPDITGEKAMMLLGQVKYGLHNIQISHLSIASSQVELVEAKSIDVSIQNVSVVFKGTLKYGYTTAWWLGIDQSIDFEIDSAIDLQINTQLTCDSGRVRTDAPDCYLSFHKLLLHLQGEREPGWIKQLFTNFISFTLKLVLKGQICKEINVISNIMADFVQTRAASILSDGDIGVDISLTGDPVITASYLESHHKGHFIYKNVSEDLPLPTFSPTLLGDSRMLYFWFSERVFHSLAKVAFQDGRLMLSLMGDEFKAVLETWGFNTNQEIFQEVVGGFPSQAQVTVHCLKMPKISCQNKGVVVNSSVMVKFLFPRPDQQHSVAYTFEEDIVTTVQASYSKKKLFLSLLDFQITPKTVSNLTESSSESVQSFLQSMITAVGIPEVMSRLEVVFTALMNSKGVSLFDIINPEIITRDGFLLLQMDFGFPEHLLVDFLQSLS
# Protocol: All tested compounds were dissolved in 100% DMSO, making sure the compound was dissolved totally. The solution was vibrated hard on an oscillator for more than 30 s and then stored in a nitrogen cabinet. The stock solutions (10 mM) were diluted with DMSO for an 8-point titration (1:5 serial dilutions) in a 96-well dilution plate. […] Compounds were tested at eight concentrations, and the fluorescence intensity were measured using a fluorometer (ExEm = 465/535 nm). The IC50 was determined from a curve fit of the data with each concentration tested three times.
IC50 (CETP),SMILES,other results
–,COc1cc(F)c(C(C)C)cc1-c1ccc(C(F)(F)F)cc1CN1C(=O)O[C@H](c2cc(C(F)(F)F)cc(C(F)(F)F)c2)[C@@H]1C [Anacetrapib],decrease of LDL-C levels (LDL-C levels; printed as 'to'): 40%; raise of HDL-C levels (HDL-C levels; printed as 'to'): 130%
2.84 ± 0.04 µM,"COc1ccc(C(C)C)cc1C1=C(CN(Cc2cc(C(F)(F)F)cc(C(F)(F)F)c2)c2nn[nH]n2)CC(C)(C)CC1 [Compound 12, N-(3,5-Bis(trifluoromethyl)benzyl)-N-((2-(5-isopropyl-2-methoxyphenyl)-5,5-dimethylcyclohex-1-enyl)-methyl)-2H-tetrazol-5-amine]",–
> 50 µM,COC(=O)Cn1nnc(N(CC2=C(c3cc(C(C)C)ccc3OC)CCC(C)(C)C2)Cc2cc(C(F)(F)F)cc(C(F)(F)F)c2)n1 [Compound 13],–
> 50 µM,"CCOC(=O)CCCn1nnc(N(CC2=C(c3cc(C(C)C)ccc3OC)CCC(C)(C)C2)Cc2cc(C(F)(F)F)cc(C(F)(F)F)c2)n1 [Compound 14, N-(3,5-Bis(trifluoromethyl)benzyl)-N-((2-(5-isopropyl-2-methoxyphenyl)-5,5-dimethylcyclohex-1-enyl)-methyl)-2H-tetrazol-5-amine-2-butyric acid ethyl ester]",–
1.92 ± 0.1 µM,"COc1ccc(C(C)C)cc1C1=C(CN(Cc2cc(C(F)(F)F)cc(C(F)(F)F)c2)c2nnn(CCN)n2)CC(C)(C)CC1 [Compound 15, 2-(2-Aminoethyl)-N-(3,5-Bis(trifluoromethyl)benzyl)-N-((2-(5-isopropyl-2-methoxyphenyl)-5,5-dimethyl-cyclohex-1-enyl)methyl)-2H-tetrazol-5-amine]",–
1.2 ± 0.01 µM,"COc1ccc(C(C)C)cc1C1=C(CN(Cc2cc(C(F)(F)F)cc(C(F)(F)F)c2)c2nnn(CCS(C)(=O)=O)n2)CC(C)(C)CC1 [Compound 16, N-(3,5-Bis(trifluoromethyl)benzyl)-N-((2-(5-isopropyl-2-methoxyphenyl)-5,5-dimethylcyclohex-1-enyl)-methyl)-2-(2-(methylsulfonyl)ethyl)-2H-tetrazol-5-amine]",–
1.6 ± 0.02 µM,"COc1ccc(C(C)C)cc1C1=C(CN(Cc2cc(C(F)(F)F)cc(C(F)(F)F)c2)c2nnn(CCCC(=O)O)n2)CC(C)(C)CC1 [Compound 18, N-(3,5-Bis(trifluoromethyl)benzyl)-N-((2-(5-isopropyl-2-methoxyphenyl)-5,5-dimethylcyclohex-1-enyl)-methyl)-2H-tetrazol-5-amine-2-butyric acid]",–
0.73 ± 0.09 µM,"COc1ccc(C(C)C)cc1C1=C(CN(Cc2cc(C(F)(F)F)cc(C(F)(F)F)c2)c2nnn(CCO)n2)CC(C)(C)CC1 [Compound 19, N-(3,5-Bis(trifluoromethyl)benzyl)-N-((2-(5-isopropyl-2-methoxyphenyl)-5,5-dimethylcyclohex-1-enyl)-methyl)-2H-tetrazol-5-amine-2-ethyl alcohol]",–
5.76 ± 0.03 µM,COc1ccc(C(C)C)cc1C1=C(CN(Cc2cc(C(F)(F)F)cc(C(F)(F)F)c2)c2nnn(CCCCO)n2)CC(C)(C)CC1 [Compound 20],–
20.06 ± 0.12 µM,"COc1ccc(C(C)C)cc1C1=C(CN(Cc2cc(C(F)(F)F)cc(C(F)(F)F)c2)c2nnn(CC(N)=O)n2)CC(C)(C)CC1 [Compound 21, 2-(5-((3,5-Bis(trifluoromethyl)benzyl)((2-(5-isopropyl-2-methoxyphenyl)-5,5-dimethylcyclohex-1-enyl)-methyl)amino)-2H-tetrazol-2-yl)acetamide]",–
0.72 ± 0.06 µM,"COc1ccc(C(C)C)cc1C1=C(CN(Cc2cc(C(F)(F)F)cc(C(F)(F)F)c2)c2noc(C)n2)CC(C)(C)CC1 [Compound 22, N-(3,5-Bis(trifluoromethyl)benzyl)-N-((2-(5-isopropyl-2-methoxyphenyl)-5,5-dimethylcyclohex-1-enyl)-methyl)-5-methyl-1,2,4-oxadiazol-3-amine]",–
> 50 µM,"COc1ccc(C(C)C)cc1C1=C(CN(Cc2cc(C(F)(F)F)cc(C(F)(F)F)c2)C2CCN(CCO)CC2)CC(C)(C)CC1 [Compound 32, N-(3,5-Bis(trifluoromethyl)benzyl)-N-((2-(5-isopropyl-2-methoxyphenyl)-5,5-dimethylcyclohex-1-enyl)-methyl)piperidin-4-amine-1-ethyl alcohol]",–
> 50 µM,"COc1ccc(C(C)C)cc1C1=C(CN(Cc2cc(C(F)(F)F)cc(C(F)(F)F)c2)C2CCN(CC(=O)O)CC2)CC(C)(C)CC1 [Compound 33, N-(3,5-Bis(trifluoromethyl)benzyl)-N-((2-(5-isopropyl-2-methoxyphenyl)-5,5-dimethylcyclohex-1-enyl)-methyl)piperidin-4-amine-1-acetic acid]",–
> 50 µM,"COc1ccc(C(C)C)cc1C1=C(CN(Cc2cc(C(F)(F)F)cc(C(F)(F)F)c2)C2CCN(C(=O)OC3CCOCC3)CC2)CC(C)(C)CC1 [Compound 34, N-(3,5-Bis(trifluoromethyl)benzyl)-N-((2-(5-isopropyl-2-methoxyphenyl)-5,5-dimethylcyclohex-1-enyl)-methyl)piperidin-4-amine-1-methanoic acid tetrahydro-2H-pyran-4-ol ester]",–
> 50 µM,"CCOC(=O)N1CC(N(CC2=C(c3cc(C(C)C)ccc3OC)CCC(C)(C)C2)Cc2cc(C(F)(F)F)cc(C(F)(F)F)c2)C1 [Compound 35, N-(3,5-Bis(trifluoromethyl)benzyl)-N-((5′-isopropyl-2′-methoxy-4,4-dimethyl-3,4,5,6-tetrahydro-[1,1′-biphenyl]-2-yl)methyl)azetidin-3-amine-1-methanoic acid ethyl ester]",–
> 50 µM,"COc1ccc(C(C)C)cc1C1=C(CN(Cc2cc(C(F)(F)F)cc(C(F)(F)F)c2)C2CN(C(=O)OC(C)C)C2)CC(C)(C)CC1 [Compound 36, N-(3,5-Bis(trifluoromethyl)benzyl)-N-((5′-isopropyl-2′-methoxy-4,4-dimethyl-3,4,5,6-tetrahydro-[1,1′-biphenyl]-2-yl)methyl)azetidin-3-amine-1-methanoic acid isopropyl ester]",–
> 50 µM,"COc1ccc(C(C)C)cc1C1=C(CN(Cc2cc(C(F)(F)F)cc(C(F)(F)F)c2)C2CN(C(=O)OC3CCOCC3)C2)CC(C)(C)CC1 [Compound 37, N-(3,5-Bis(trifluoromethyl)benzyl)-N-((5′-isopropyl-2′-methoxy-4,4-dimethyl-3,4,5,6-tetrahydro-[1,1′-biphenyl]-2-yl)methyl)azetidin-3-amine-1-methanoic acid tetrahydro-2H-pyran-4-ol ester]",–
0.81 ± 0.03 µM,"COc1ccc(C(C)C)cc1C1=C(CN(Cc2cc(C(F)(F)F)cc(C(F)(F)F)c2)c2nnn(C)n2)CC(C)(C)CC1 [Compound 40, N-(3,5-Bis(trifluoromethyl)benzyl)-N-((2-(5-isopropyl-2-methoxyphenyl)-5,5-dimethylcyclohex-1-enyl)-methyl)-2-methyl-2H-tetrazol-5-amine]",–
10.05 ± 0.06 µM,"COc1ccc(C(C)C)cc1C1=C(CN(Cc2cccc(C(F)(F)F)c2)c2nnn(C)n2)CC(C)(C)CC1 [Compound 41, N-((2-(5-Isopropyl-2-methoxyphenyl)-5,5-dimethylcyclohex-1-enyl)methyl)-2-methyl-N-(3-(trifluoromethyl)-benzyl)-2H-tetrazol-5-amine]",–
> 50 µM,"COc1ccc(C(C)C)cc1C1=C(CN(Cc2ccc(F)cc2)c2nnn(C)n2)CC(C)(C)CC1 [Compound 42, N-(4-Fluorobenzyl)-N-((2-(5-isopropyl-2-methoxyphenyl)-5,5-dimethylcyclohex-1-enyl)methyl)-2-methyl-2H-tetrazol-5-amine]",CETP inhibition (in words) (CETP): no CETP inhibition
> 50 µM,"COc1ccc(C(C)C)cc1C1=C(CN(Cc2ccc(C(F)(F)F)cc2)c2nnn(C)n2)CC(C)(C)CC1 [Compound 43, N-((2-(5-Isopropyl-2-methoxyphenyl)-5,5-dimethylcyclohex-1-enyl)methyl)-2-methyl-N-(4-(trifluoromethyl)-benzyl)-2H-tetrazol-5-amine]",CETP inhibition (in words) (CETP): no CETP inhibition
> 50 µM,"COc1ccc(C(C)C)cc1C1=C(CN(Cc2ccc(OC(F)(F)F)cc2)c2nnn(C)n2)CC(C)(C)CC1 [Compound 44, N-((2-(5-Isopropyl-2-methoxyphenyl)-5,5-dimethylcyclohex-1-enyl)methyl)-2-methyl-N-(4-(trifluoro-methoxy)benzyl)-2H-tetrazol-5-amine]",CETP inhibition (in words) (CETP): no CETP inhibition
–,CCC(CC)CC1(C(=O)Nc2ccccc2SC(=O)C(C)C)CCCCC1 [Dalcetrapib],effect on LDL-C levels (LDL-C levels): minimal effect; elevation of HDL-C levels (HDL-C levels): up to 30%
–,Cc1cc(C)c2c(c1)[C@@H](N(Cc1cc(C(F)(F)F)cc(C(F)(F)F)c1)c1nnn(C)n1)CCCN2C[C@H]1CC[C@H](C(=O)O)CC1 [Evacetrapib],decrease of LDL-C (LDL-C levels): up to 36%; raising of HDL-C levels (HDL-C levels): more than 129%
